The record followed here is patent US20230136941A1, “IMPROVING PLANT NUTRITIONAL VALUE AND GROWTH THROUGH ENHANCEMENT OF ESSENTIAL AMINO ACID LEVELS” (Board of Trustees of Michigan State University, priority 2020, published 2023).

Structures are written as SMILES.

The test system of assay [1] is eva1 cotyledon epidermal cells expressing GFP-δTIP. Put plainly: Confocal imaging of vacuole morphology after temporal chemical treatment of eva1 seedlings. It counts as cell-based, Arabidopsis thaliana.
For assay [2], the system named is wild type (Col-0), eva1, ipms1-4 and ipms1-5 seedlings. Description: Primary root elongation of seedlings germinated and grown on medium containing chemical inhibitors (chronic treatment). It counts as in vivo, Arabidopsis thaliana. The procedure: Except for chronical treatments with specified chemicals, Arabidopsis seeds were stratified and grown on medium containing half-strength Linsmaier and Skoog nutrients (½ LS; Caisson Labs, LSP03), 1% sucrose and 0.4% phytagel (Sigma-Aldrich, P8169) in chambers configured with 21° C. and 16-hour light: 8-hour dark cycle.
In another pharmaceutical examination using AZD-8055, wortmannin and Lat B (FIG. 6A-6G, 6L-6Q), wild type (Col-0), eva1, ipms1-4 and ipms1-5 lines germinated and grew on vertically staged Petri dishes containing Arabidopsis growth medium containing specific chemical inhibitors.

For assay [3], the system named is wild type cotyledon epidermal cells expressing GFP-δTIP. Description: Confocal imaging of vacuole morphology after temporal chemical treatment of wild type seedlings. Conditions: 5 μM AZD-8055, 2 or 4 hours.
Assay [4] relates to wild type (Col-0), ipms1-4 and ipms1-5 seedlings. Put plainly: Root growth after transplant of 10-day old seedlings to Lat B medium. It counts as in vivo, Arabidopsis thaliana. The procedure: To examine the effect of latrunculin B (Lat B) on root elongation (FIG. 6L-6Q), wild type (Col-0), ipms1-4 and ipms1-5 lines germinated and grew on horizontally staged Petri dishes containing Arabidopsis growth medium (½ LS, 1% sucrose and 0.4% phytagel). 10-day old seedlings were transplanted to Petri dishes containing ½ LS, 1% sucrose and 1% Agar (Acumedia, 7558A) medium containing DMSO or 50 nM Lat B or 100 nM Lat B. Photographs were acquired immediately after the transplant and the Petri dishes were vertically staged in a Percival chamber.
Photographs were also acquired 8 days after the transplant.
Experiments were designed to validate this hypothesis by testing the sensitivity of the ipms1 alleles to the F-actin depolymerizing reagent latrunculin B (Lat B) (Cao et al., 2016). The primary root length of 10-day old ipms1-4 and ipms1-5 was approximately 50% of WT (FIG. 4H-4I). Seedlings of all genotypes were then transferred to medium containing DMSO or 50 nM or 100 nM Lat B in DMSO.

Assay [5] relates to omr1-11^D cotyledon epidermal cells. Description: ER strand phenotype of omr1-11^D after Torin2 treatment. It counts as cell-based, Arabidopsis thaliana. Conditions: 2-hour Torin2 treatment.
The mark [6] stands for this setting: 25 μM Lat B, two-hour treatment.
The mark [7] stands for this setting: nine-day old seedlings grown on Lat B medium (FIG. 6P-6Q).

Consider `COc1ccc(-c2ccc3c(N4CCOC[C@@H]4C)nc(N4CCOC[C@@H]4C)nc3n2)cc1CO` [AZD-8055], for which the “small vacuoles and trans-vacuolar strands in eva1” value in assay [1] (5 μM AZD-8055, 2 hours) is “reduced in appearance”. Also, in assay [1] (5 μM AZD-8055, 4 hours), the “vacuole appearance of eva1 cells” value is recorded as “indistinguishable from wild type”. In assay [1] (legend prints 5 mM AZD-8055, 2 and 4 hours), the “vacuolar mutant phenotypes of eva1 (FIG. 6A-6F legend)” value is listed as “rescues vacuolar mutant phenotypes of eva1”. The “ipms1 primary root elongation” value in assay [2] (AZD-8055 higher concentrations (0.4, 0.6 and 1.0 μM), chronic) is on record as “inhibited”; in assay [2] (AZD-8055 lower concentrations (0.1 and 0.2 μM), chronic), “promoted”. Also, the “morphology of the central vacuole and trans-vacuolar strands in wild type cells” value in assay [3] is “did not exhibit significant changes”.
On to `C/C1=C/C(=O)O[C@@H]2C[C@@H](CC[C@H](C)/C=C\CC1)O[C@@](O)([C@@H]1CSC(=O)N1)C2` [Lat B, latrunculin B], for which, in assay [1] (setting [6]), the “small vacuoles in eva1” value is listed as “persisted” and the “trans-vacuolar strands in eva1” value was “disappeared”. Besides, in assay [2] (Lat B treatment, chronic, increasing concentrations), the “promotion of root elongation” value is recorded as “not observed”. Moreover, in assay [2] (setting [7]), the “primary root length vs DMSO control, ipms1 mutants” value is “less effects” and the “primary root length vs DMSO control, wild type” value was “significant differences”. Besides, the “primary root length of ipms1-4 and ipms1-5 compared to WT” value in assay [4] (50 nM Lat B, 8 days after transplant (DMSO medium: approximately 65%)) amounted to 80%. Further, the “formation of lateral roots in WT seedlings” value in assay [4] (50 nM or 100 nM Lat B, 8 days after transplant) was “promoted the formation of lateral roots”. The “primary root length of ipms1-4 and ipms1-5 compared to WT” value in assay [4] (100 nM Lat B, 8 days after transplant) was “not significantly different from WT”.
Consider `Nc1ccc(-c2ccc3ncc4ccc(=O)n(-c5cccc(C(F)(F)F)c5)c4c3c2)cn1` [Torin2, 9-(6-aminopyridin-3-yl)-1-(3-(trifluoromethyl)phenyl) benzo[h][1,6]naphthyridin-2(1H)-one], for which the “presumably unfused vacuoles and trans-vacuolar strands in eva1” value in assay [1] (1 μM Torin2, 2 hours) is listed as “no longer present”. Also, the “enhanced ER strands in omr1-11^D” value in assay [5] is “recovered”.
